Test results reported in ChEMBL document CHEMBL5727678, “CARM1 inhibitors and uses thereof” (2020).

Experiment: Enzyme Assay: The assays were all performed in a buffer consisting of 20 mM Bicine (pH=7.6), 1 mM TCEP, 0.005% BSG, and 0.002% Tween 20, prepared on the day of use. Compounds in 100% DMSO (1 ul) were spotted into a polypropylene 384-well V-bottom plates using a Platemate Plus outfitted with a 384-channel head . DMSO (1 ul) was added to Columns 11, 12, 23, 24, rows A-H for the maximum signal control and 1 ul of SAH, a known product and inhibitor of CARM1, was added to columns 11, 12, 23, 24, rows I-P for the minimum signal control. A cocktail (40 ul) containing the CARM1 enzyme was added by Multidrop Combi. The compounds were allowed to incubate with CARM1 for 30 min at room temperature, then a cocktail (10 ul) containing 3H-SAM and peptide was added to initiate the reaction (final volume=51 ul). The final concentrations of the components were as follows: CARM1 was 0.25 nM, 3H-SAM was 30 nM, peptide was 250 nM, SAH in the minimum signal control wells was 1 mM, and the DMSO concentration was 2%. The assays were stopped by the addition of non-radiolabeled SAM (10 ul) to a final concentration of 300 uM, which dilutes the 3H-SAM to a level where its incorporation into the peptide substrate is no longer detectable. 50 ul of the reaction in the 384-well polypropylene plate was then transferred to a 384-well Flashplate and the biotinylated peptides were allowed to bind to the streptavidin surface for at least 1 hour before being washed once with 0.1% Tween20 in a Biotek ELx405 plate washer.

IC50 [nM]	Structure (SMILES)
< 100	CNC[C@@H](O)COc1ccc(Cl)c(-c2nc(-c3c(C)noc3C)c(C)c(N3Cc4c(C)nn(C)c4C3)n2)c1
< 100	CNCC(O)COc1cccc(-c2nc(-c3c(C)noc3C)cc(N3C[C@@H]4C[C@H]3CN4C(=O)OC)n2)c1 (stereo partly drawn)
< 100	CNCC(O)COc1cccc(-c2nc(-c3c(C)noc3C)c(C)c(N3CCO[C@H](CNC)C3)n2)c1 (stereo partly drawn)
